In patent publication US20240116985A1, “STAPLED PEPTIDES AND METHODS THEREOF” (priority 2020, published 2024):
≈ marks a conversion by molar mass, not a printed value. Read-outs that look alike come from different tables or passages of the source.

Key:
[1] = target: T1, full-length B-Catenin (Uniprot ID P35222) (Homo sapiens, UniProt P35222); test: Alphascreen binding assay (beta-catenin / biotin-TCF4 10-53)
T1 construct: 65 nM full-length B-Catenin (Uniprot ID P35222)
T1 sequence (P35222 1-781): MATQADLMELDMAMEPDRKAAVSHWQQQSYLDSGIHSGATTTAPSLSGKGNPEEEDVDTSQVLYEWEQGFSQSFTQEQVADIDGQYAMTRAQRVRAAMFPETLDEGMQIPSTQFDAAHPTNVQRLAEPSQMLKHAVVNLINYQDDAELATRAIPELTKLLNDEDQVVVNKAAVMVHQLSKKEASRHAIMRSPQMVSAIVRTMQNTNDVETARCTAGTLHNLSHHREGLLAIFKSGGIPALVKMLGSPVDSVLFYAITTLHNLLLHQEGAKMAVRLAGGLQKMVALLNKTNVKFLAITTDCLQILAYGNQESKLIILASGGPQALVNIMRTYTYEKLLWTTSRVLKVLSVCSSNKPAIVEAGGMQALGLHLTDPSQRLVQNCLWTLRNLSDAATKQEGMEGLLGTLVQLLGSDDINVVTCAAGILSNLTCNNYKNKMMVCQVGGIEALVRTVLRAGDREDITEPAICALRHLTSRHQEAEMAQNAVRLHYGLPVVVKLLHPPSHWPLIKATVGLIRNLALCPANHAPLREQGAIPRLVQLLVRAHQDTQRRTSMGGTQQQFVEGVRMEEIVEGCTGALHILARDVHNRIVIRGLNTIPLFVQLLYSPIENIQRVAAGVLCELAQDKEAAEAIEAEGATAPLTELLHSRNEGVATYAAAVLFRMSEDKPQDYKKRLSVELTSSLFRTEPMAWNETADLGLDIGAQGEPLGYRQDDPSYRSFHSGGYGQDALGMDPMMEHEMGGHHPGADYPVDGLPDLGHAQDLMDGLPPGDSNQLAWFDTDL
Outline: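 AlphaScreen (Ni-chelate beads) competition in 50 mM Tris pH 8.0, 250 mM NaCl with detergents and 0.1% BSA. Peptide titrated 10 uM–5 nM against 65 nM human β-catenin bound to 10 nM biotinylated TCF4 10-53, 15 min then 60 min with beads, both at 20 °C; 1:1 Hill-slope fit.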

[2] = Solubility in PBS; format: physicochemical
Outline: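 PBS sample ultracentrifuged; supernatant run on HPLC vs. 50 μM peptide in DMSO standard. Solubility = (PBS peak area / DMSO peak area) × 50 uM.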

[3] = CHI Log D procedure; format: physicochemical; settings: for chromatographic logD: pH 7.4, CHI Log D; for CHI Log D: pH 7.4
[4] = target: T2, full-length beta-Catenin (Uniprot ID P35222) (Homo sapiens, UniProt P35222); test: Fluorescence polarization IC50 (beta-catenin / 5FAM-TCF4 10-53 competition); format: binding; settings: Table E2-1; read-out: beta-Catenin FP IC50
T2 construct: 10 nM full-length beta-Catenin (Uniprot ID P35222)
T2 sequence (P35222 1-781): T1 sequence (P35222 1-781)

SMILES	EC50 [1] [µM]	solubility at 15 min ([2]; Solubility (uM)) [µM]	chromatographic logD [3]	IC50 [4] [µM]	Solubility [2] [µM]	CHI Log D [3]	Solubility ([2]; Solubility (uM)) [µM]
CC(=O)N[C@@H](Cc1ccccc1)C(=O)N[C@@H](CC(=O)O)C(=O)N[C@@H](C)C(=O)N[C@]1(C)CCCCCCC=CCOC(=O)N2CC[C@@](C(=O)N[C@@H](Cc3ccccc3)C(=O)N[C@@H](Cc3c[nH]c4ccccc34)C(=O)N[C@@H](CCC(N)=O)C(N)=O)(C2)NC(=O)[C@H](C(C)C)NC(=O)[C@H](CC2CCCC2)NC(=O)[C@H](C)NC(=O)[C@H](C)NC(=O)[C@H](CC(=O)O)NC(=O)[C@H](CC(=O)O)NC1=O (single isomer, unassigned) [I-95, Ac-Phe-Asp-Ala-R8-Asp-Asp-Ala-Ala-CypA-Val-PyrS-Phe-Trp-Gln-NH2]	8.66	33 (≈ 59.9 µg/mL)	1.31				
CC(=O)N1CCC[C@]12CC=CCCCC1(CCCC=CCCCCCC[C@@](C)(C(=O)N[C@@H](Cc3ccccc3)C(=O)N[C@@H](Cc3c[nH]c4ccccc34)C(=O)N[C@@H](CCC(N)=O)C(N)=O)NC(=O)[C@H](C(C)C)NC(=O)[C@H](Cc3ccccc3)NC(=O)[C@H](C)NC(=O)[C@H](C)NC(=O)[C@H](CC(=O)O)NC(=O)[C@H](CC(=O)O)NC1=O)NC(=O)[C@H](C)NC(=O)[C@H](CC(=O)O)NC2=O (stereo partly drawn) [I-52, Ac-PL3-Asp-Ala-B5-Asp-Asp-Ala-Ala-Phe-Val-S8-Phe-Trp-Gln-NH2]	0.158		1.93	3.2	50 (≈ 89.1 µg/mL)		
CCN(CC(=O)O)C[C@@H]1NC(=O)[C@H](CC(=O)O)NC(=O)C2(CCCC=CCCCCCC[C@@](C)(C(=O)N[C@@H](Cc3ccccc3)C(=O)N[C@@H](Cc3c[nH]c4ccccc34)C(=O)N[C@@H](CCC(N)=O)C(N)=O)NC(=O)[C@H](C(C)C)NC(=O)[C@H](Cc3ccccc3)NC(=O)[C@H](C)NC(=O)[C@H](C)NC1=O)CCCC=CC[C@]1(CCCN1C(C)=O)C(=O)N[C@@H](CC(=O)O)C(=O)N[C@@H](C)C(=O)N2 (stereo partly drawn) [I-172, Ac-PL3-Asp-Ala-B5-Asp-EtGA-Ala-Ala-Phe-Val-S8-Phe-Trp-Gln-NH2]	0.324				50 (≈ 91.9 µg/mL)	2.173	
CC(=O)N[C@@H](Cc1ccccc1)C(=O)N[C@@H](CC(=O)O)C(=O)N[C@@H](C)C(=O)N[C@]1(C)CCCCCCC=CCOC(=O)N2CC[C@@](C(=O)N[C@@H](Cc3c(F)c(F)c(F)c(F)c3F)C(=O)N[C@@H](Cc3c[nH]c4ccccc34)C(=O)N[C@@H](CCC(N)=O)C(N)=O)(C2)NC(=O)[C@H](C(C)C)NC(=O)[C@H](Cc2ccccc2)NC(=O)[C@H](C)NC(=O)[C@H](C)NC(=O)[C@H](CC(=O)O)NC(=O)[C@H](CC(=O)O)NC1=O [I-228, Ac-Phe-Asp-Ala-R8-Asp-Asp-Ala-Ala-Phe-Val-PyrS-Pff-Trp-Gln-NH2]	5.91				38 (≈ 72.7 µg/mL)	1.534	
CC(=O)N1CCC[C@]12CC=CCCCC1(CCCC=CCCCCCC[C@@](C)(C(=O)N[C@@H](Cc3ccccc3)C(=O)N[C@@H](Cc3c[nH]c4ccccc34)C(=O)N[C@@H](CCC(N)=O)C(N)=O)NC(=O)[C@H](C(C)C)NC(=O)[C@H](Cc3ccccc3)NC(=O)[C@H](C)NC(=O)[C@H](C)NC(=O)[C@H](Cc3ccc(O)cc3)NC(=O)[C@H](CC(=O)O)NC1=O)NC(=O)[C@H](C)NC(=O)[C@H](CC(=O)O)NC2=O (stereo partly drawn) [I-274, Ac-PL3-Asp-Ala-B5-Asp-Tyr-Ala-Ala-Phe-Val-S8-Phe-Trp-Gln-NH2]	2.35		2.62		10 (≈ 18.3 µg/mL)		
CC(=O)N1CCC[C@]12CC=CCCCC1(CCCC=CCCCCCC[C@@](C)(C(=O)N[C@@H](Cc3ccccc3)C(=O)N[C@@H](Cc3c[nH]c4ccccc34)C(=O)N[C@@H](CCC(N)=O)C(N)=O)NC(=O)[C@H](C(C)C)NC(=O)[C@H](C)NC(=O)[C@H](C)NC(=O)[C@H](C)NC(=O)[C@H](CC(=O)O)NC(=O)[C@H](CC(=O)O)NC1=O)NC(=O)[C@H](C)NC(=O)[C@H](CC(=O)O)NC2=O (stereo partly drawn) [I-353, Ac-PL3-Asp-Ala-B5-Asp-Asp-Ala-Ala-Ala-Val-S8-Phe-Trp-Gln-NH2]	9.29				45 (≈ 76.7 µg/mL)	1.916	
CC(=O)N1CCC[C@]12CC=CCCCC1(CCCC=CCCCCCC[C@@](C)(C(=O)N[C@@H](C)C(=O)N[C@@H](Cc3c[nH]c4ccccc34)C(=O)N[C@@H](CCC(N)=O)C(N)=O)NC(=O)[C@H](C(C)C)NC(=O)[C@H](Cc3ccccc3)NC(=O)[C@H](C)NC(=O)[C@H](C)NC(=O)[C@H](CC(=O)O)NC(=O)[C@H](CC(=O)O)NC1=O)NC(=O)[C@H](C)NC(=O)[C@H](CC(=O)O)NC2=O (stereo partly drawn) [I-356, Ac-PL3-Asp-Ala-B5-Asp-Asp-Ala-Ala-Phe-Val-S8-Ala-Trp-Gln-NH2]	8.2				50 (≈ 85.2 µg/mL)	1.619	

Now from value to compound:

EC50 [1] [µM]	solubility at 15 min ([2]; Solubility (uM)) [µM]	chromatographic logD [3]	IC50 [4] [µM]	Solubility [2] [µM]	CHI Log D [3]	Solubility ([2]; Solubility (uM)) [µM]	SMILES
5.91				38 (≈ 72.7 µg/mL)	1.534		CC(=O)N[C@@H](Cc1ccccc1)C(=O)N[C@@H](CC(=O)O)C(=O)N[C@@H](C)C(=O)N[C@]1(C)CCCCCCC=CCOC(=O)N2CC[C@@](C(=O)N[C@@H](Cc3c(F)c(F)c(F)c(F)c3F)C(=O)N[C@@H](Cc3c[nH]c4ccccc34)C(=O)N[C@@H](CCC(N)=O)C(N)=O)(C2)NC(=O)[C@H](C(C)C)NC(=O)[C@H](Cc2ccccc2)NC(=O)[C@H](C)NC(=O)[C@H](C)NC(=O)[C@H](CC(=O)O)NC(=O)[C@H](CC(=O)O)NC1=O [I-227, Ac-Phe-Asp-Ala-R8-Asp-Asp-Ala-Ala-Phe-Val-PyrS-Pff-Trp-Gln-NH2]
9.21		3.1		10 (≈ 18.8 µg/mL)			CC(=O)N1CCC[C@]12CC=CCCCC1(CCCC=CCCCCCC[C@@](C)(C(=O)N[C@@H](Cc3ccccc3)C(=O)N[C@@H](Cc3c[nH]c4ccccc34)C(=O)N[C@@H](CCC(N)=O)C(N)=O)NC(=O)[C@H](C(C)C)NC(=O)[C@H](Cc3ccccc3)NC(=O)[C@H](C)NC(=O)[C@H](C)NC(=O)C(Cc3cccc4cc(F)ccc34)NC(=O)[C@H](CC(=O)O)NC1=O)NC(=O)[C@H](C)NC(=O)[C@H](CC(=O)O)NC2=O (stereo partly drawn) [I-256, Ac-PL3-Asp-Ala-B5-Asp-6F1NapA-Ala-Ala-Phe-Val-S8-Phe-Trp-Gln-NH2]
4		2.08				47 (≈ 84.4 µg/mL)	CC(=O)N1CCC[C@]12CC=CCCCC1(CCCC=CCCCCCC[C@@](C)(C(=O)N[C@@H](CCc3ccccc3)C(=O)N[C@@H](Cc3c[nH]c4ccccc34)C(=O)N[C@@H](CCC(N)=O)C(N)=O)NC(=O)[C@H](C(C)C)NC(=O)[C@H](Cc3ccccc3)NC(=O)[C@H](C)NC(=O)[C@H](C)NC(=O)[C@H](CC(=O)O)NC(=O)[C@H](CC(=O)O)NC1=O)NC(=O)[C@H](C)NC(=O)[C@H](CC(=O)O)NC2=O (stereo partly drawn) [I-268, Ac-PL3-Asp-Ala-B5-Asp-Asp-Ala-Ala-Phe-Val-S8-hPhe-Trp-Gln-NH2]
1.89		2.74		10 (≈ 18.4 µg/mL)			CC(=O)N1CCC[C@]12CC=CCCCC1(CCCC=CCCCCCC[C@@](C)(C(=O)N[C@@H](Cc3ccccc3)C(=O)N[C@@H](Cc3c[nH]c4ccccc34)C(=O)N[C@@H](CCC(N)=O)C(N)=O)NC(=O)[C@H](C(C)C)NC(=O)[C@H](Cc3ccccc3)NC(=O)[C@H](C)NC(=O)[C@H](C)NC(=O)[C@H](CCc3ccc(O)cc3)NC(=O)[C@H](CC(=O)O)NC1=O)NC(=O)[C@H](C)NC(=O)[C@H](CC(=O)O)NC2=O (stereo partly drawn) [I-273, Ac-PL3-Asp-Ala-B5-Asp-hTyr-Ala-Ala-Phe-Val-S8-Phe-Trp-Gln-NH2]
6.8				45 (≈ 82.4 µg/mL)	2.186		CC(=O)N1CCC[C@]12CC=CCCCC1(CCCC=CCCCCCC[C@@](C)(C(=O)N[C@@H](Cc3ccc4ccccc4c3)C(=O)N[C@@H](Cc3c[nH]c4ccccc34)C(=O)N[C@@H](CCC(N)=O)C(N)=O)NC(=O)[C@H](C(C)C)NC(=O)[C@H](Cc3ccccc3)NC(=O)[C@H](C)NC(=O)[C@H](C)NC(=O)[C@H](CC(=O)O)NC(=O)[C@H](CC(=O)O)NC1=O)NC(=O)[C@H](C)NC(=O)[C@H](CC(=O)O)NC2=O (stereo partly drawn) [I-277, Ac-PL3-Asp-Ala-B5-Asp-Asp-Ala-Ala-Phe-Val-S8-2NapA-Trp-Gln-NH2]
2.13				50 (≈ 85.2 µg/mL)	1.947		CC(=O)N1CCC[C@]12CC=CCCCC1(CCCC=CCCCCCC[C@@](C)(C(=O)N[C@@H](Cc3ccccc3)C(=O)N[C@@H](Cc3c[nH]c4ccccc34)C(=O)N[C@@H](CCC(N)=O)C(N)=O)NC(=O)[C@H](C(C)C)NC(=O)[C@H](C)NC(=O)[C@H](C)NC(=O)[C@H](C)NC(=O)[C@H](CC(=O)O)NC(=O)[C@H](CC(=O)O)NC1=O)NC(=O)[C@H](C)NC(=O)[C@H](CC(=O)O)NC2=O (stereo partly drawn) [I-354, Ac-PL3-Asp-Ala-B5-Asp-Asp-Ala-Ala-Ala-Val-S8-Phe-Trp-Gln-NH2]
